These compounds were tested against PIK3CG (human) (UniProt P48736) (assay: Assessment of PIK3CG Kinase Activity).
Chain of PIK3CG (human) (P48736 whole entry, looked up): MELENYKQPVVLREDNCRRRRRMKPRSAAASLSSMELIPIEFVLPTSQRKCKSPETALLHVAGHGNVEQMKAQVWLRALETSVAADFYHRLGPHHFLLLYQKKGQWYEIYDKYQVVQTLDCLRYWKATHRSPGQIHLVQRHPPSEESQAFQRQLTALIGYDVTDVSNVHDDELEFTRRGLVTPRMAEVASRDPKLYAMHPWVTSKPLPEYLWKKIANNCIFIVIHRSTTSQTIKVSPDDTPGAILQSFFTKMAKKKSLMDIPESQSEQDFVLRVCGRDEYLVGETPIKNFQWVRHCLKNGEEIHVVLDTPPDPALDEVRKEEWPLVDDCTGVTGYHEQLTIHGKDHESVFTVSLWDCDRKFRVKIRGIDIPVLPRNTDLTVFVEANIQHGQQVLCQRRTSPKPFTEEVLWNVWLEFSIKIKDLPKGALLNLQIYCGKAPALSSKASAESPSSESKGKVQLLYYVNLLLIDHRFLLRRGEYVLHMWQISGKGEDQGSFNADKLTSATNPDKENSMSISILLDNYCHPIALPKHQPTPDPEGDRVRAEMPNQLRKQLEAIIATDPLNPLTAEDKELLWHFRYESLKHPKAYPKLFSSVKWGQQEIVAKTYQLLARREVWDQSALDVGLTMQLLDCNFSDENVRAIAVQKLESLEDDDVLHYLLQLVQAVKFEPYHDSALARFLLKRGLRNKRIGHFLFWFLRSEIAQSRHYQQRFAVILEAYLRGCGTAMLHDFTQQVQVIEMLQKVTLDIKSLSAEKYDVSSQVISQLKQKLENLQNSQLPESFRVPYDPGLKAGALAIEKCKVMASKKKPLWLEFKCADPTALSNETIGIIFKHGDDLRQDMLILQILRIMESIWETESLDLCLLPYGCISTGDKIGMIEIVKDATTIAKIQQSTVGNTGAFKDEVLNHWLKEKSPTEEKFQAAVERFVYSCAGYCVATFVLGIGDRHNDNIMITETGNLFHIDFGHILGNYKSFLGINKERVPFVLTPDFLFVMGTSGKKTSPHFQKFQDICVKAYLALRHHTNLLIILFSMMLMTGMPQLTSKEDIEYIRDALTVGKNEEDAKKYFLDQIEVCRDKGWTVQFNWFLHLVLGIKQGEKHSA

| IC50 [nM] | Structure (SMILES) |
| --- | --- |
| < 800 | COc1ccccc1-c1ncc2c(n1)-c1sc(NC(C)=O)nc1CC2 |
| < 800 | COC(=O)c1nn(-c2c(Cl)cccc2Cl)c2c1CCc1nc(NC(C)=O)sc1-2 |
| < 800 | CC(=O)Nc1nc2c(s1)-c1c(cnn1-c1ccc(C(=O)NC3CCC(=O)O3)cc1)CC2 (centres undefined) |
| < 800 | CC(=O)Nc1nc2c(s1)-c1c(cnn1-c1ccc(C(=O)NCc3cccc(N4CCNC4=O)c3)cc1)CC2 |
| < 800 | CC(=O)Nc1nc2c(s1)-c1c(c(C(C)C)nn1-c1ccc(C(=O)N[C@H]3CC[C@H](N4CCCC4)CC3)cc1Cl)CC2 |
| < 800 | CC(=O)Nc1nc2c(s1)-c1c(cnn1-c1ccc(C)cc1)C2 |
| < 800 | CN1CCN(C(=O)Nc2nc3c(s2)-c2c(cnn2-c2ccccc2)C3)CC1 |
| < 800 | CC(=O)Nc1nc2c(s1)-c1c(cnn1-c1ccc(C(=O)N[C@@H](Cc3c[nH]cn3)C(N)=O)cc1Cl)CC2 |
| < 800 | CC(=O)Nc1nc2c(s1)-c1c(cnn1-c1ccc(C(=O)N[C@H](Cc3cnc[nH]3)C(N)=O)cc1Cl)CC2 |
| < 800 | O=C(CNC[C@H](O)[C@@H](O)[C@H](O)[C@H](O)CO)Nc1nc2c(s1)-c1c(cnn1-c1ccccc1)CC2 |
| < 800 | CC(=O)Nc1nc2c(s1)-c1nc(-c3ccccc3)[nH]c(=O)c1CC2 |
| < 800 | O=C(Nc1nc2c(s1)-c1c(cnn1-c1ccccc1)C2)N1CCCCC1 |
| < 800 | CC(=O)Nc1nc2c(s1)-c1c(cnn1-c1ccc(C(=O)NC(C)(C)CN3CCCCC3)cc1)CC2 |
| < 800 | CNC(=O)Nc1nc2c(s1)-c1nc(-c3ccccc3C)ncc1CC2 |
| < 800 | CN(C)CCNC(=O)Nc1nc2c(s1)-c1c(cnn1-c1ccccc1)C2 |
| < 800 | CC(=O)Nc1nc2c(s1)-c1nn(-c3ccccc3F)c(-c3ccco3)c1CC2 |
| < 800 | CC(=O)Nc1nc2c(s1)-c1nn(C(=O)c3ccco3)cc1CC2 |
| < 800 | CNCCNC(=O)Nc1nc2c(s1)-c1nc(-c3ccccc3)ncc1CC2 |
| < 800 | CC(=O)Nc1nc2c(s1)-c1c(cnn1-c1ccc(Cl)cc1)CC2 |
| < 800 | CC(=O)Nc1nc2c(s1)-c1c(cnn1-c1ccc(C(=O)N[C@@H](CCCCN)C(N)=O)cc1Cl)CC2 |
| < 800 | CC(=O)Nc1nc2c(s1)-c1c(cnn1-c1cccc([N+](=O)[O-])c1)CC2 |
| < 800 | CC(=O)Nc1nc2c(s1)-c1c(c(-c3ccccn3)nn1-c1ccccc1)CC2 |
| < 800 | CC(=O)Nc1nc2c(s1)-c1c(cnn1-c1ccc(C(=O)NC3CCC4(CC3)OCCO4)cc1)CC2 |
| < 800 | CC(=O)Nc1nc2c(s1)-c1c(cnn1-c1ccc(C(=O)NCc3ccccn3)cc1)CC2 |
| < 800 | CC(=O)Nc1nc2c(s1)-c1c(c(-c3ccoc3)nn1-c1ccccc1C)CC2 |

| IC50 [nM] | Structure (SMILES) |
| --- | --- |
| < 800 | CC(=O)Nc1nc2c(s1)-c1c(cnn1-c1cccc(C)c1)CC2 |
| < 800 | CC(=O)Nc1nc2c(s1)-c1c(cnn1-c1ccc(Cl)cc1)C2 |
| < 800 | CC(=O)NCCCC[C@H](NC(=O)c1ccc(-n2ncc3c2-c2sc(NC(C)=O)nc2CC3)c(Cl)c1)C(N)=O |
| < 800 | C#CCNc1ncc2c(n1)-c1sc(NC(C)=O)nc1CC2 |
| < 800 | CC(=O)Nc1nc2c(s1)-c1c(cnn1C(N)=O)CC2 |
| < 800 | CC(=O)Nc1nc2c(s1)-c1c(cnn1-c1ccc(C(=O)N[C@@H](COCc3ccccc3)C(N)=O)cc1Cl)CC2 |
| < 800 | Nc1ncc2c(n1)-c1sc(N)nc1CC2 |
| < 800 | CC(=O)Nc1nc2c(s1)-c1c(c(-c3c[nH]cn3)nn1-c1ccccc1C(F)(F)F)CC2 |
| < 800 | COCc1nn(-c2ccc(C(=O)NC3CCN(C)CC3)cc2Cl)c2c1CCc1nc(NC(C)=O)sc1-2 |
| < 800 | CC(=O)Nc1nc2c(s1)-c1c(cnn1-c1ccc(C(=O)N(C)CC#N)cc1)CC2 |
| < 800 | CC(=O)Nc1nc2c(s1)-c1nn(-c3ccc(C(=O)NC4CCN(C)CC4)cc3Cl)c(-c3ccco3)c1CC2 |
| < 800 | CC(=O)Nc1nc2c(s1)-c1c(c(N)nn1-c1ccccc1Cl)CC2 |
| < 800 | CCCN(CC)C(=O)Cc1ccc(-n2ncc3c2-c2sc(NC(C)=O)nc2CC3)cc1 |
| < 800 | CC(=O)Nc1nc2c(s1)-c1c(cnn1CCC(C)C)CC2 |
| < 800 | COCc1nn(-c2ccc(C(=O)NCc3ccncc3)cc2Cl)c2c1CCc1nc(NC(C)=O)sc1-2 |
| < 800 | COc1ccccc1-n1ncc2c1-c1sc(NC(C)=O)nc1CC2 |
| < 800 | CC(=O)Nc1nc2c(s1)-c1c(cnn1-c1ccc(C(=O)NCCC(=O)O)cc1)CC2 |
| < 800 | CC(=O)Nc1nc2c(s1)-c1nc(C3CC3)ncc1CC2 |
| < 800 | CC(=O)Nc1nc2c(s1)-c1c(cnn1-c1ccc(C(=O)N[C@H]3CC[C@H](N4C[C@@H](C)O[C@@H](C)C4)CC3)cc1)CC2 |
| < 800 | CC(=O)Nc1nc2c(s1)-c1c(c(-c3cn(C)cn3)nn1-c1ccccc1C(F)(F)F)CC2 |
| < 800 | CC(=O)Nc1nc2c(s1)-c1c(cnn1-c1ccc(C(=O)O)cc1Cl)CC2 |
| < 800 | CC(=O)Nc1nc2c(s1)-c1c(c(-c3cn(C)cn3)nn1-c1ccccc1Cl)CC2 |
| < 800 | CC(=O)Nc1nc2c(s1)-c1c(cnn1-c1ccc(CC(=O)NCc3cnn(C)c3)cc1)CC2 |
| < 800 | C#Cc1nn(-c2ccccc2C(F)(F)F)c2c1CCc1nc(NC(C)=O)sc1-2 |
| < 800 | CC(=O)Nc1nc2c(s1)-c1c(cnn1-c1ccc(CC(=O)NC3CCOC3=O)cc1)CC2 (centres undefined) |

| IC50 [nM] | Structure (SMILES) |
| --- | --- |
| < 800 | CC(=O)Nc1nc2c(s1)-c1c(cnn1-c1ccc(CC(=O)NCc3cccc(C(N)=O)c3)cc1)CC2 |
| < 800 | CC(=O)Nc1nc2c(s1)-c1c(cnn1-c1ccc3ncsc3c1)CC2 |
| < 800 | CC(=O)Nc1nc2c(s1)-c1c(cnn1-c1ccc(C(=O)N3CCN(CCO)CC3)cc1)CC2 |
| < 800 | CC(=O)Nc1nc2c(s1)-c1nc(NC3CCN(C)CC3)ncc1CC2 |
| < 800 | COC(=O)c1nn(-c2ccccc2C)c2c1CCc1nc(NC(C)=O)sc1-2 |
| < 800 | CC(=O)Nc1nc2c(s1)-c1nc(-c3ccc(C)cc3)ncc1CC2 |
| < 800 | CC(=O)Nc1nc2c(s1)-c1c(c(-c3ccccc3)nn1-c1ccccc1F)CC2 |
| < 800 | CC(=O)Nc1nc2c(s1)-c1c(cnn1CCc1ccccc1)CC2 |
| < 800 | CC(=O)Nc1nc2c(s1)-c1c(cnn1-c1ccc(C(=O)NCCc3cn[nH]c3)cc1)CC2 |
| < 800 | CC(=O)Nc1nc2c(s1)-c1c(cnn1-c1ccc(C(=O)N[C@H]3CC[C@@H](N4CCCCC4)CC3)cc1)CC2 |
| < 800 | CC(=O)Nc1nc2c(s1)-c1c(cnn1-c1ccc(C(=O)N[C@H]3CC[C@H](N(Cc4ccccc4)Cc4ccccc4)CC3)cc1)CC2 |
| < 800 | CC(=O)Nc1nc2c(s1)-c1nc(-c3ccc(C(=O)N(C)C)cc3)ncc1CC2 |
| < 800 | CC(=O)Nc1nc2c(s1)-c1nc(N3CCCC(CN)C3)ncc1CC2 (centres undefined) |
| < 800 | CN(C)CCCC(=O)Nc1nc2c(s1)-c1c(cnn1-c1ccccc1)CC2 |
| < 800 | CC(=O)Nc1nc2c(s1)-c1c(cnn1-c1ccccc1Br)CC2 |
| < 800 | CC(=O)Nc1nc2c(s1)-c1c(cnn1-c1ccc(C(=O)NCCn3ccnc3)cc1)CC2 |
| < 800 | CC(=O)Nc1nc2c(s1)-c1nc(COc3ccccc3Cl)ncc1CC2 |
| < 800 | COc1cc(-n2ncc3c2-c2sc(NC(C)=O)nc2CC3)nc(OC)n1 |
| < 800 | CN(C)CCCC(=O)Nc1nc2c(s1)-c1c(cnn1-c1ccccc1Cl)C2 |
| < 800 | CC(=O)Nc1nc2c(s1)-c1c(c(-c3ccco3)nn1-c1ccccc1F)CC2 |
| < 800 | CC(=O)Nc1nc2c(s1)-c1c(c(NC(=O)OC(C)C)nn1-c1ccccc1Cl)CC2 |
| < 800 | CC(=O)Nc1nc2c(s1)-c1c(c(-c3ccco3)nn1-c1ccc(C(=O)N[C@H]3CC[C@H](N4CCCC4)CC3)cc1Cl)CC2 |
| < 800 | CC(=O)Nc1nc2c(s1)-c1c(cnn1-c1ccccc1F)CC2 |
| < 800 | CC(=O)Nc1nc2c(s1)-c1nc(N(C)CCN(C)C)ncc1CC2 |
| < 800 | CC(=O)Nc1nc2c(s1)-c1c(cnn1-c1ccc(C(=O)NC3CCC(NC(=O)c4cccc5ccccc45)CC3)cc1)CC2 (centres undefined) |

| IC50 [nM] | Structure (SMILES) |
| --- | --- |
| < 800 | CC(=O)Nc1nc2c(s1)-c1c(cnn1-c1ccccc1C)CC2 |
| < 800 | CC(=O)Nc1nc2c(s1)-c1c(cnn1-c1ccc(C(=O)NC3CCN(C)CC3)cc1)CC2 |
| < 800 | CC(=O)Nc1nc2c(s1)-c1c(cnn1-c1ccccc1C(C)C)C2 |
| < 800 | CC(=O)Nc1nc2c(s1)-c1c(cnn1-c1c(Cl)cccc1Cl)CC2 |
| < 800 | CNC(=O)Nc1nc2c(s1)-c1c(cnn1-c1ccccc1)CC2 |
| < 800 | CC(=O)Nc1nc2c(s1)-c1c(cnn1-c1cc(O)cc(Cl)c1)CC2 |
| < 800 | CC(=O)Nc1nc2c(s1)-c1nn(C(=O)C(C)C)cc1CC2 |
| < 800 | CC(=O)Nc1nc2c(s1)-c1c(c(-c3cn(C)cn3)nn1-c1ccccc1)CC2 |
| < 800 | CC(=O)Nc1nc2c(s1)-c1c(cnn1-c1ccc(C(=O)NCCCCCCN)cc1)CC2 |
| < 800 | CC(=O)Nc1nc2c(s1)-c1c(cnn1-c1ccc(S(=O)(=O)O)cc1)CC2 |
| < 800 | CC(=O)Nc1nc2c(s1)-c1c(cnn1-c1ccc(C(=O)NCCCN(C)C)cc1)CC2 |
| < 800 | CCNC(=O)Nc1nc2c(s1)-c1c(cnn1-c1ccccc1)CC2 |
| < 800 | CCN1CCCC1CNCC(=O)Nc1nc2c(s1)-c1c(cnn1-c1ccccc1)CC2 (centres undefined) |
| < 800 | CCc1ccccc1-n1ncc2c1-c1sc(NC(C)=O)nc1C2 |
| < 800 | CCS(=O)(=O)c1ncc2c(n1)-c1sc(NC(C)=O)nc1CC2 |
| < 800 | CC(C)(C)NC(=O)NCC#CCNC(=O)Nc1nc2c(s1)-c1c(cnn1-c1ccccc1)CC2 |
| < 800 | CC(=O)Nc1nc2c(s1)-c1c(cnn1-c1ccc(C(=O)N3CCC(O)CC3)cc1)CC2 |
| < 800 | NC(=O)Nc1nc2c(s1)-c1c(cnn1-c1ccccc1)CC2 |
| < 800 | COc1cc(OC)cc(-c2ncc3c(n2)-c2sc(NC(C)=O)nc2CC3)c1 |
| < 800 | CC(=O)Nc1nc2c(s1)-c1c(cnn1C(=O)c1ccccc1)CC2 |
| < 800 | CC(=O)Nc1nc2c(s1)-c1c(cnn1-c1ccc(CC(=O)N3CCC(C(N)=O)CC3)cc1)CC2 |
| < 800 | CN(C)CCNC(=O)Nc1nc2c(s1)-c1c(cnn1-c1ccccc1Cl)C2 |

| Structure (SMILES) | IC50 [nM] |
| --- | --- |
| CC(=O)Nc1nc2c(s1)-c1c(c(NC(=O)Oc3ccccc3)nn1-c1ccccc1Cl)CC2 | < 800 |
| CCN(CC)CC1CCCCN1C(=O)Cc1ccc(-n2ncc3c2-c2sc(NC(C)=O)nc2CC3)cc1 (centres undefined) | < 800 |
